Laboratory results: patent US20240092758A1, “IMIDAZOLO INDAZOLE COMPOUNDS AS JAK INHIBITORS” (Theravance Biopharma R&D IP, LLC, priority 2021, published 2024)

How the values were obtained:
[1] = molecular target: JAK1 (Homo sapiens (Human), UniProt P23458); assay: Biochemical JAK kinase assay (LanthaScreen), JAK1; conditions: for Ki: read-out: JAK1 pKi (converted)
How it was run: (§1)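 LanthaScreen format: phospho-STAT1 (pTyr701) detected with 2 nM Tb antibody after 10 mM EDTA quench. Kinase step used Km-level ATP and 200 nM STAT1 peptide, 1 h at ambient after 1 h pre-incubation. Inhibition fitted to IC50, reported as pKi.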

[2] = molecular target: JAK2 (Homo sapiens (Human), UniProt O60674); assay: Biochemical JAK kinase assay (LanthaScreen), JAK2; conditions: for Ki: read-out: JAK2 pKi (converted)
How it was run: as §1

[3] = molecular target: JAK3 (Homo sapiens (Human), UniProt P52333); assay: Biochemical JAK kinase assay (LanthaScreen), JAK3; conditions: read-out: JAK3 pKi (converted)
Description: (§2) A panel of four LanthaScreen JAK biochemical assays (JAK1, 2, 3 and Tyk2) were carried in a common kinase reaction buffer (50 mM HEPES, pH 7.5, 0.01% Brij-35, 10 mM MgCl2, and 1 mM EGTA). Recombinant GST-tagged JAK enzymes and a GFP-tagged STAT1 peptide substrate were obtained from Life Technologies.
(§3) Serially diluted compounds were pre-incubated with each of the four JAK enzymes and the substrate in white 384-well microplates (Corning) at ambient temperature for 1 h. ATP was subsequently added to initiate the kinase reactions in 10 μL total volume, with 1% DMSO. The final enzyme concentrations for JAK1, 2, 3 and Tyk2 are 4.2 nM, 0.1 nM, 1 nM, and 0.25 nM respectively; the corresponding Km ATP concentrations used are 25 μM, 3 μM, 1.6 μM, and 10 μM; while the substrate concentration is 200 nM for all four assays. Kinase reactions were allowed to proceed for 1 hour at ambient temperature before a 10 μL preparation of EDTA (10 mM final concentration) and Tb-anti-pSTAT1 (pTyr701) antibody (Life Technologies, 2 nM final concentration) in TR-FRET dilution buffer (Life Technologies) was added. The plates were allowed to incubate at ambient temperature for 1 h before being read on the EnVision reader (Perkin Elmer). Emission ratio signals (520 nm/495 nm) were recorded and utilized to calculate the percent inhibition values based on DMSO and background controls.
(§4) For dose-response analysis, percent inhibition data were plotted vs. compound concentrations, and IC50 values were determined from a 4-parameter robust fit model with the Prism software (GraphPad Software). Results were expressed as pIC50 (negative logarithm of IC50) and subsequently converted to pKi (negative logarithm of dissociation constant, Ki) using the Cheng-Prusoff equation.
(§5) Test compounds having a lower Ki value or higher pKi value in the four JAK assays show greater inhibition of JAK activity.

[4] = molecular target: TYK2 (Homo sapiens (Human), UniProt P29597); assay: Biochemical JAK kinase assay (LanthaScreen), Tyk2; conditions: read-out: Tyk2 pKi (converted)
Description: as §2, §3, §4, §5

[5] = test system: IL-13 induced STAT6 phosphorylation in BEAS-2B human lung epithelial cells; assay: Cellular JAKI potency assay (BEAS-2B); format: cell-based; conditions: Homo sapiens, BEAS-2B, BEAS-2B cells, read-out: BEAS2B pIC50 (converted)
How it was run: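 AlphaLISA SureFire detection of Tyr641 pSTAT6 in lysates gave IC50s (4-parameter fit, expressed as pIC50). Cells: human BEAS-2B, exposed 1 h at 37 °C to compound dose series at 0.1% DMSO, then 30 min to IL-13 added at 80 ng/mL in HEPES-buffered HBSS with BSA.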

Chain of TYK2 (P29597 whole entry): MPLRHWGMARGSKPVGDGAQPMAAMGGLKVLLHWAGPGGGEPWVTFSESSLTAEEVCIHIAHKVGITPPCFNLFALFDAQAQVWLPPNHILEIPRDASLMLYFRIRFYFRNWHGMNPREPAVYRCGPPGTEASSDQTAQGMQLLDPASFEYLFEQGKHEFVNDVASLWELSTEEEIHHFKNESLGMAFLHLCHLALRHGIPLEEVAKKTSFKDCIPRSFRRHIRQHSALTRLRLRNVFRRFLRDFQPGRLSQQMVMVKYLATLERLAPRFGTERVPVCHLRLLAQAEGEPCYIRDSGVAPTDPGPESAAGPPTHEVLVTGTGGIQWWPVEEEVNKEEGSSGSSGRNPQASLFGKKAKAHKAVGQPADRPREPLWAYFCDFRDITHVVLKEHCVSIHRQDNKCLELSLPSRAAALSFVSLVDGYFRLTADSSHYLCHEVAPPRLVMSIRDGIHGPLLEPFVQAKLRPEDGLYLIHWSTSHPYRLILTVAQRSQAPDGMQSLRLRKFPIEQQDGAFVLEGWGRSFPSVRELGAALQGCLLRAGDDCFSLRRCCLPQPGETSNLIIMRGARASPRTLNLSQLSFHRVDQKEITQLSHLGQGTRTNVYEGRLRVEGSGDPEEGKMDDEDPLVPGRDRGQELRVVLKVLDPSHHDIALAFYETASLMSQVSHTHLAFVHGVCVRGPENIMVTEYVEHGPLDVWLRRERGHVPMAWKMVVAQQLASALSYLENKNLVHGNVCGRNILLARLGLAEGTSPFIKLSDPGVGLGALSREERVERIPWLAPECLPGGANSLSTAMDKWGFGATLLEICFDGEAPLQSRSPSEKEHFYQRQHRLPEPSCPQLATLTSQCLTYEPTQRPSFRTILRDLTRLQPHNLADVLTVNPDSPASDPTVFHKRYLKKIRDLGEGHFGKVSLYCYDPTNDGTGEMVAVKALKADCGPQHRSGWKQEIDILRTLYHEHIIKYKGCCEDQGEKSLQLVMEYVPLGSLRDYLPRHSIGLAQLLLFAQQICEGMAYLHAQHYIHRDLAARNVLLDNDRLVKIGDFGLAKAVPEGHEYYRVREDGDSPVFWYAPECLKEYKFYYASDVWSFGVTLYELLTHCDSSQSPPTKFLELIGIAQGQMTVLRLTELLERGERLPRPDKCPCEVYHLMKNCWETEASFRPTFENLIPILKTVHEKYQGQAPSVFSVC
Chain of JAK3 (P52333 whole entry): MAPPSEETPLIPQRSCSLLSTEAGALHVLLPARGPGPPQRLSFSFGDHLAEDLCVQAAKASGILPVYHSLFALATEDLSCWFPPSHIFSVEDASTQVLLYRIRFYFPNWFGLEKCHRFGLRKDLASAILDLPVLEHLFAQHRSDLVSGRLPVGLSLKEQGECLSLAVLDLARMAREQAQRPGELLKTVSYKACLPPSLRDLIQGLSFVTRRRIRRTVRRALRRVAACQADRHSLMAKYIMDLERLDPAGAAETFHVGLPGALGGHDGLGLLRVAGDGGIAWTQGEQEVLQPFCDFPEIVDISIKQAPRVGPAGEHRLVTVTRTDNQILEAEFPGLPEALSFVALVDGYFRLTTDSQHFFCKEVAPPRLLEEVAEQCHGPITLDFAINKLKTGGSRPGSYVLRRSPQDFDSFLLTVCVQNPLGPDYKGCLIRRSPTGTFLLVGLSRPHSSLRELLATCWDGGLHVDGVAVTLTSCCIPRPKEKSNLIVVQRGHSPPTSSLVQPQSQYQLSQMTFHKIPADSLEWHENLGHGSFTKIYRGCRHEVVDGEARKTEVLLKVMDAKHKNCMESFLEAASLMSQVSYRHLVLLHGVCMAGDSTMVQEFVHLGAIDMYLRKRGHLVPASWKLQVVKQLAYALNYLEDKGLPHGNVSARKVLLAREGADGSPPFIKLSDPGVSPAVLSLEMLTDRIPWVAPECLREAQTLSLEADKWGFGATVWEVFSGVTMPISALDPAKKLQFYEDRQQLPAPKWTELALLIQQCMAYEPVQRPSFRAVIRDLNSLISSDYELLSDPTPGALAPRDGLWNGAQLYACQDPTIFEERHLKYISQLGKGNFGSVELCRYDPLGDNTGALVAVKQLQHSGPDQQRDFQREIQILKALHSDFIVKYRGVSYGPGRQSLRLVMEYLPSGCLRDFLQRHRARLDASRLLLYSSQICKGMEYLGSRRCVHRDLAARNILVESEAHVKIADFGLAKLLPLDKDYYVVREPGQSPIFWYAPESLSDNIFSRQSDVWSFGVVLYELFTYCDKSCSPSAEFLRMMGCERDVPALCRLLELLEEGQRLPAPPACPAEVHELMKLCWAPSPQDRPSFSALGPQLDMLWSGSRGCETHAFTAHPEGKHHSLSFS
Chain of JAK1 (P23458 whole entry): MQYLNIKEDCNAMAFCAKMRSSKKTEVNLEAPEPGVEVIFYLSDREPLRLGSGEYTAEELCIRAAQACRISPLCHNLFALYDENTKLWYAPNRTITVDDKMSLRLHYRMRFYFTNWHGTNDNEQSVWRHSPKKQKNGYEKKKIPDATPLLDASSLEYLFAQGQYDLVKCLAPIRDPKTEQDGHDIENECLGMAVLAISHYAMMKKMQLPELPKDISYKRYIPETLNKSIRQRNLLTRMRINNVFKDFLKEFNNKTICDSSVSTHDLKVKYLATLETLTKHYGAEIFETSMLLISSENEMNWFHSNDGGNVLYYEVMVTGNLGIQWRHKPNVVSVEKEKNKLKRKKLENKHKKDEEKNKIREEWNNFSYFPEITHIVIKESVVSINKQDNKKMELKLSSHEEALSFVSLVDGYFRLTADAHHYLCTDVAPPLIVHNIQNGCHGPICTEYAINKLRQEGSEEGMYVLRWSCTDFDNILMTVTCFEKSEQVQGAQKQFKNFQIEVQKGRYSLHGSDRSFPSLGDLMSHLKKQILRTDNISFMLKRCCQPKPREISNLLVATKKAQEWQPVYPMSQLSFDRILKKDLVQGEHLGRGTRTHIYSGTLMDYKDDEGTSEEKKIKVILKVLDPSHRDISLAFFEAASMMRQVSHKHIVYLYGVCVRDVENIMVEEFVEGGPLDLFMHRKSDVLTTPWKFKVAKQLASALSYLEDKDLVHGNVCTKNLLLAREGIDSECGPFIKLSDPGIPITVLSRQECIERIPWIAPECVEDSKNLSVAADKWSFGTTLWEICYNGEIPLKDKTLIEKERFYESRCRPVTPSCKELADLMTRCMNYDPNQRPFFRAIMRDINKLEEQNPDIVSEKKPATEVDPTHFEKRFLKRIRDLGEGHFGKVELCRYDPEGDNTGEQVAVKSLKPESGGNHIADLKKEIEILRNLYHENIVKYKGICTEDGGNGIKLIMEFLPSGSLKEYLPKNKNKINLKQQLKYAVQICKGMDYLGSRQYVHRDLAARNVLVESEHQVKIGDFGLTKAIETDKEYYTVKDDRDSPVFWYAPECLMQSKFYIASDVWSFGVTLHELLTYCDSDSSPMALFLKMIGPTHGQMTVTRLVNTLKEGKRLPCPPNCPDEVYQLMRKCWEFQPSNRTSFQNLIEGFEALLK
Chain of JAK2 (O60674 whole entry): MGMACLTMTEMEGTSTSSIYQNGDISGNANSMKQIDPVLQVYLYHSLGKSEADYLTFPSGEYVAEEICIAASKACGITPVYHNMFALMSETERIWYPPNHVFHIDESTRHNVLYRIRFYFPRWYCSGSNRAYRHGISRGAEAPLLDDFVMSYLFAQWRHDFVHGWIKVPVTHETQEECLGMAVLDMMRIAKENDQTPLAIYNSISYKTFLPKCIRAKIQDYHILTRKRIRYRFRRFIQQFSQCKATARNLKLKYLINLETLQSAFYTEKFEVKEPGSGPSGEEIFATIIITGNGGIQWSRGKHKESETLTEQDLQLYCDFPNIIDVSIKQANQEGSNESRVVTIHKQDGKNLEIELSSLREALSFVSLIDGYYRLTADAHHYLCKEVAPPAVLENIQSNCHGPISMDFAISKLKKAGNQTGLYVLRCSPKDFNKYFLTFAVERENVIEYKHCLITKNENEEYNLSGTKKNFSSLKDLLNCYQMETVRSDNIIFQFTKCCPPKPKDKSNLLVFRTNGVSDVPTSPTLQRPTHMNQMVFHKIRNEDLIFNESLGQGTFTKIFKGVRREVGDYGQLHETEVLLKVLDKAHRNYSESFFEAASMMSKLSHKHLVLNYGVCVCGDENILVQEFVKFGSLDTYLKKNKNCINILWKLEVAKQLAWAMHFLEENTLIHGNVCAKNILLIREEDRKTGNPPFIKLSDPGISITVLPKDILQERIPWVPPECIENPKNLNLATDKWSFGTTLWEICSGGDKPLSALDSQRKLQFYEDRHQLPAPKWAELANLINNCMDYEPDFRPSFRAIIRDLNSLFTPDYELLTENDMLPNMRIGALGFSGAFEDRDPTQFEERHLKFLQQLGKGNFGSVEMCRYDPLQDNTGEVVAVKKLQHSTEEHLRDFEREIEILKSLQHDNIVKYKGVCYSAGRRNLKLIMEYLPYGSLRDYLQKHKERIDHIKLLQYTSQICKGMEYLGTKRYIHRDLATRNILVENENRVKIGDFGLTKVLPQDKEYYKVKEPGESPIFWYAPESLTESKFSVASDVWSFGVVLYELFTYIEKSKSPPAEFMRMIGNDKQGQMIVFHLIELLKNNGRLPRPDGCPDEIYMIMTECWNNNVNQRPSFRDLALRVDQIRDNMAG

Row | SMILES | JAK1 pKi [1] | JAK2 pKi [2] | Ki [3] | Ki [4] | IC50 [5] | Ki [1] | Ki [2]
1 | CCc1cc(O)ccc1-c1ccc2c(-c3nc(C4=CCN(CCN5CCOCC5)CC4)c[nH]3)n[nH]c2c1 [Example 184] | A (A represents a pKi value ≥10 (Ki≤0.1 nM)) | A (A represents a pKi value ≥10 (Ki≤0.1 nM)) | 0.1 to 1 nM | 1 to 10 nM | 3.16 to 10 nM |  | 
2 | CCc1cc(O)ccc1-c1ccc2c(-c3nc(C4=CCN(C5CN(C)C5)CC4)c[nH]3)n[nH]c2c1F [Example 186] |  |  | 0.1 to 1 nM | 1 to 10 nM | 3.16 to 10 nM | 0.1 to 1 nM | 0.1 to 1 nM
3 | CCc1cc(O)ccc1-c1ccc2c(-c3nc(C4=CCN(C[C@@H]5COCCN5)CC4)c[nH]3)n[nH]c2c1F [Example 189] |  |  | 0.1 to 1 nM | 1 to 10 nM | 10 to 31.6 nM | 0.1 to 1 nM | 0.1 to 1 nM
4 | CCc1cc(O)ccc1-c1ccc2c(-c3nc(C4=CCN(CCN5CCOCC5)CC4)c[nH]3)n[nH]c2c1F [Example 191] | A (A represents a pKi value ≥10 (Ki≤0.1 nM)) | A (A represents a pKi value ≥10 (Ki≤0.1 nM)) | 0.1 to 1 nM | 1 to 10 nM | 10 to 31.6 nM |  | 
5 | CCc1cc(O)ccc1-c1ccc2c(-c3nc(C4=CCCN(C5CCN(C)CC5)C4)c[nH]3)n[nH]c2c1F [Example 194] |  |  | 0.1 to 1 nM | 1 to 10 nM | 10 to 31.6 nM | 0.1 to 1 nM | 0.1 to 1 nM
6 | CCc1cc(O)ccc1-c1ccc2c(-c3nc(C4=CCCN(C5CN(C)C5)C4)c[nH]3)n[nH]c2c1F [Example 195] |  |  | 0.1 to 1 nM | 1 to 10 nM | 31.6 to 100 nM | 0.1 to 1 nM | 0.1 to 1 nM
7 | CCc1cc(O)ccc1-c1ccc2c(-c3nc(C4=CCCN(C[C@@H]5COCCN5)C4)c[nH]3)n[nH]c2c1F [Example 196] |  |  | 0.1 to 1 nM | 10 to 100 nM | 31.6 to 100 nM | 1 to 10 nM | 0.1 to 1 nM
8 | CCc1cc(O)ccc1-c1ccc2c(-c3nc(C4=CCN(C5CCN(C)CC5)C4)c[nH]3)n[nH]c2c1 [Example 199] | A (A represents a pKi value ≥10 (Ki≤0.1 nM)) | A (A represents a pKi value ≥10 (Ki≤0.1 nM)) | 0.1 to 1 nM | 0.1 to 1 nM | 3.16 to 10 nM |  | 
9 | CCc1cc(O)ccc1-c1ccc2c(-c3nc(C4=CCN(C[C@@H]5COCCN5)C4)c[nH]3)n[nH]c2c1F [Example 205] |  |  | 0.1 to 1 nM | 1 to 10 nM | 10 to 31.6 nM | 0.1 to 1 nM | 0.1 to 1 nM
10 | CCc1cc(O)ccc1-c1ccc2c(-c3nc(C4=CCN(CCN5CCOCC5)C4)c[nH]3)n[nH]c2c1F [Example 206] |  | A (A represents a pKi value ≥10 (Ki≤0.1 nM)) | 0.1 to 1 nM | 1 to 10 nM | 10 to 31.6 nM | 0.1 to 1 nM | 
11 | CCc1cc(O)ccc1-c1ccc2c(-c3nc(C4=CCN(C5CCNC5)CC4)c[nH]3)n[nH]c2c1F (stereo not drawn) [Example 207] |  | A (A represents a pKi value ≥10 (Ki≤0.1 nM)) | 0.1 to 1 nM | 1 to 10 nM | 100 to 316 nM | 0.1 to 1 nM | 
12 | CCc1cc(O)ccc1-c1ccc2c(-c3nc(C4=CCN(C5CCN(C)C5)CC4)c[nH]3)n[nH]c2c1F (stereo not drawn) [Example 208] |  | A (A represents a pKi value ≥10 (Ki≤0.1 nM)) | 0.1 to 1 nM | 1 to 10 nM | 10 to 31.6 nM | 0.1 to 1 nM | 
13 | CCc1cc(O)ccc1-c1ccc2c(-c3nc(C4=CCN(CCN(C)C)CC4)c[nH]3)n[nH]c2c1F [Example 209] |  | A (A represents a pKi value ≥10 (Ki≤0.1 nM)) | 0.1 to 1 nM | 1 to 10 nM | 10 to 31.6 nM | 0.1 to 1 nM | 
14 | CCc1cc(O)ccc1-c1ccc2c(-c3nc(C4=CCN(C5CCCN(C)C5)CC4)c[nH]3)n[nH]c2c1F (stereo not drawn) [Example 212] |  | A (A represents a pKi value ≥10 (Ki≤0.1 nM)) | 0.1 to 1 nM | 1 to 10 nM | 10 to 31.6 nM | 0.1 to 1 nM | 
15 | CCc1cc(O)ccc1-c1ccc2c(-c3nc(C4=CCN(C(C)CN)CC4)c[nH]3)n[nH]c2c1F (stereo not drawn) [Example 213] |  |  | 0.1 to 1 nM | 10 to 100 nM | 100 to 316 nM | 0.1 to 1 nM | 0.1 to 1 nM
16 | CCc1cc(O)ccc1-c1ccc2c(-c3nc(C4=CCCN(C5CCNC5)C4)c[nH]3)n[nH]c2c1F (stereo not drawn) [Example 214] |  | A (A represents a pKi value ≥10 (Ki≤0.1 nM)) | 0.1 to 1 nM | 10 to 100 nM | 316 to 1000 nM | 0.1 to 1 nM | 
17 | CCc1cc(O)ccc1-c1ccc2c(-c3nc(C4=CCCN(C5CCN(C)C5)C4)c[nH]3)n[nH]c2c1F (stereo not drawn) [Example 215] |  |  | 0.1 to 1 nM | 1 to 10 nM | 31.6 to 100 nM | 1 to 10 nM | 0.1 to 1 nM
18 | CCc1cc(O)ccc1-c1ccc2c(-c3nc(C4=CCCN(C5CCCN(C)C5)C4)c[nH]3)n[nH]c2c1F (stereo not drawn) [Example 217] |  |  | 0.1 to 1 nM | 1 to 10 nM | 31.6 to 100 nM | 1 to 10 nM | 0.1 to 1 nM
19 | CCc1cc(O)ccc1-c1ccc2c(-c3nc(C4=CCN(C5CCNC5)C4)c[nH]3)n[nH]c2c1F (stereo not drawn) [Example 218] | A (A represents a pKi value ≥10 (Ki≤0.1 nM)) | A (A represents a pKi value ≥10 (Ki≤0.1 nM)) | 0.1 to 1 nM | 1 to 10 nM | 31.6 to 100 nM |  | 
20 | CCc1cc(O)ccc1-c1ccc2c(-c3nc(C4=CCN(C5CCN(C)C5)C4)c[nH]3)n[nH]c2c1F (stereo not drawn) [Example 219] |  | A (A represents a pKi value ≥10 (Ki≤0.1 nM)) | 0.1 to 1 nM | 0.1 to 1 nM | 10 to 31.6 nM | 0.1 to 1 nM | 
21 | CCc1cc(O)ccc1-c1ccc2c(-c3nc(C4=CCN(CCN(C)C)C4)c[nH]3)n[nH]c2c1F [Example 220] |  | A (A represents a pKi value ≥10 (Ki≤0.1 nM)) | 0.1 to 1 nM | 1 to 10 nM | 10 to 31.6 nM | 0.1 to 1 nM | 
22 | CCc1cc(O)ccc1-c1ccc2c(-c3nc(C4=CCN(C5CCCN(C)C5)C4)c[nH]3)n[nH]c2c1F (stereo not drawn) [Example 223] |  | A (A represents a pKi value ≥10 (Ki≤0.1 nM)) | 0.1 to 1 nM | 1 to 10 nM | 10 to 31.6 nM | 0.1 to 1 nM | 
23 | CCc1cc(O)ccc1-c1ccc2c(-c3nc(C4=C(C)CNCC4)c[nH]3)n[nH]c2c1 [Example 224] |  |  | 0.1 to 1 nM | 1 to 10 nM | 3.16 to 10 nM | 0.1 to 1 nM | 0.1 to 1 nM
24 | CCc1cc(O)ccc1-c1ccc2c(-c3nc(C4=CC5CCCC(C4)N5)c[nH]3)n[nH]c2c1 (stereo not drawn) [Example 225] |  |  | 0.1 to 1 nM | 1 to 10 nM | 31.6 to 100 nM | 0.1 to 1 nM | 0.1 to 1 nM
25 | CCc1cc(O)ccc1-c1ccc2c(-c3nc(C4=CC[C@H](C)NC4)c[nH]3)n[nH]c2c1 [Example 230] | A (A represents a pKi value ≥10 (Ki≤0.1 nM)) | A (A represents a pKi value ≥10 (Ki≤0.1 nM)) | 0.1 to 1 nM | 1 to 10 nM | 3.16 to 10 nM |  | 
26 | CCc1cc(O)ccc1-c1ccc2c(-c3nc(C4=CC[C@@H](C)NC4)c[nH]3)n[nH]c2c1 [Example 231] |  | A (A represents a pKi value ≥10 (Ki≤0.1 nM)) | 0.1 to 1 nM | 1 to 10 nM | 3.16 to 10 nM | 0.1 to 1 nM | 
27 | CCc1cc(O)ccc1-c1ccc2c(-c3nc(C4=CC(C)NC4)c[nH]3)n[nH]c2c1 (stereo not drawn) [Example 238] |  |  | 0.1 to 1 nM | 10 to 100 nM | 3.16 to 10 nM | 0.1 to 1 nM | 0.1 to 1 nM
